Patent US20230111310A1, “CARBOXYLIC ACID DERIVATIVE-SUBSTITUTED IMINO ARYL COMPOUND, PREPARATION METHOD THEREFOR, HERBICIDAL COMPOSITION AND USE THEREOF” (Qingdao Kingagroot Chemical Compound Co., Ltd., priority 2020, published 2023)

What was measured:
Assay in all cases: Weeding effect in post-emergence stage
Assay type in all cases: in vivo
Conditions in all cases: fresh weight control rate level
Echinochloa crusgalli = system: Echinochloa crusgalli
Outline: (§1)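 Post-emergence spray tower; 2-3 leaf plants (2 wk after sowing, soil pots, greenhouse). Formulation: acetone, Tween 80, methyl oleate EC 1.5 liter/ha as synergist, water. Rates 500–7.5 g/ha. Growth control rate read at 3 wk; n=3, averaged.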

Abutilon theophrasti = system: Abutilon theophrasti
Outline: as §1

Digitaria sanguinalis = system: Digitaria sanguinalis
Outline: as §1

Alopecurus japonicus = system: Alopecurus japonicus
Outline: as §1

Setaria viridis = system: Setaria viridis
Outline: as §1

Eleusine indica = system: Eleusine indica
Outline: as §1

Row | SMILES | Weeding effect in post-emergence stage, Echinochloa crusgalli (level) (Echinochloa crusgalli; Dose 15 g/ha) | Weeding effect in post-emergence stage, Abutilon theophrasti (level) (Abutilon theophrasti; Dose 15 g/ha) | Weeding effect in post-emergence stage, Digitaria sanguinalis (level) (Digitaria sanguinalis; Dose 15 g/ha) | Weeding effect in post-emergence stage, Alopecurus japonicus (level) (Alopecurus japonicus; Dose 15 g/ha) | Weeding effect in post-emergence stage, Setaria viridis (level) (Setaria viridis; Dose 15 g/ha) | Weeding effect in post-emergence stage, Eleusine indica (level) (Eleusine indica; Dose 15 g/ha) | Weeding effect in post-emergence stage, Echinochloa crusgalli (level) (Echinochloa crusgalli; Dose 30 g/ha) | Weeding effect in post-emergence stage, Abutilon theophrasti (level) (Abutilon theophrasti; Dose 30 g/ha) | Weeding effect in post-emergence stage, Digitaria sanguinalis (level) (Digitaria sanguinalis; Dose 30 g/ha) | Weeding effect in post-emergence stage, Alopecurus japonicus (level) (Alopecurus japonicus; Dose 30 g/ha) | Weeding effect in post-emergence stage, Setaria viridis (level) (Setaria viridis; Dose 30 g/ha) | Weeding effect in post-emergence stage, Eleusine indica (level) (Eleusine indica; Dose 30 g/ha)
1 | COC(=O)C(C)O/N=C/c1cc(-n2c(=O)c(Cl)c(C(F)(F)F)n(C)c2=O)c(F)cc1Cl (stereo not drawn) [Compound 431] | 5 (Level 5: growth control rate is above 85%) | 5 (Level 5: growth control rate is above 85%) | 5 (Level 5: growth control rate is above 85%) | 5 (Level 5: growth control rate is above 85%) | 5 (Level 5: growth control rate is above 85%) | 5 (Level 5: growth control rate is above 85%) | – | – | – | – | – | –
2 | COC(=O)C(C)O/N=C/c1cc(N2C(=O)CC(N)(C(F)(F)F)N(C)C2=O)c(F)cc1Cl (stereo not drawn) [Compound 432] | 5 (Level 5: growth control rate is above 85%) | 5 (Level 5: growth control rate is above 85%) | 5 (Level 5: growth control rate is above 85%) | 5 (Level 5: growth control rate is above 85%) | 5 (Level 5: growth control rate is above 85%) | 5 (Level 5: growth control rate is above 85%) | – | – | – | – | – | –
3 | CC(O/N=C/c1cc(-n2c(=O)n(C)c(=S)n(C)c2=O)c(F)cc1Cl)C(=O)O (stereo not drawn) [Compound 438] | – | – | – | – | – | – | 5 (Level 5: growth control rate is above 85%) | 5 (Level 5: growth control rate is above 85%) | 5 (Level 5: growth control rate is above 85%) | 5 (Level 5: growth control rate is above 85%) | 5 (Level 5: growth control rate is above 85%) | 5 (Level 5: growth control rate is above 85%)
4 | CC(O/N=C/c1cc(-n2c(=O)n(C)c(=S)n(C)c2=O)c(F)cc1Cl)C(=O)OCC(F)(F)F (stereo not drawn) [Compound 439] | – | – | – | – | – | – | 5 (Level 5: growth control rate is above 85%) | 5 (Level 5: growth control rate is above 85%) | 5 (Level 5: growth control rate is above 85%) | 5 (Level 5: growth control rate is above 85%) | 5 (Level 5: growth control rate is above 85%) | 5 (Level 5: growth control rate is above 85%)
5 | C#CCCOC(=O)C(C)O/N=C/c1cc(-n2c(=O)cc(C(F)(F)F)n(C)c2=O)c(F)cc1Cl (stereo not drawn) [Compound 442] | 5 (Level 5: growth control rate is above 85%) | 5 (Level 5: growth control rate is above 85%) | 5 (Level 5: growth control rate is above 85%) | 5 (Level 5: growth control rate is above 85%) | 5 (Level 5: growth control rate is above 85%) | 5 (Level 5: growth control rate is above 85%) | – | – | – | – | – | –
6 | CC(C#N)OC(=O)C(C)O/N=C/c1cc(-n2c(=O)cc(C(F)(F)F)n(C)c2=O)c(F)cc1Cl (stereo not drawn) [Compound 443] | 5 (Level 5: growth control rate is above 85%) | 5 (Level 5: growth control rate is above 85%) | 5 (Level 5: growth control rate is above 85%) | 5 (Level 5: growth control rate is above 85%) | 5 (Level 5: growth control rate is above 85%) | 5 (Level 5: growth control rate is above 85%) | – | – | – | – | – | –
7 | CC(CC#N)OC(=O)C(C)O/N=C/c1cc(-n2c(=O)cc(C(F)(F)F)n(C)c2=O)c(F)cc1Cl (stereo not drawn) [Compound 444] | 5 (Level 5: growth control rate is above 85%) | 5 (Level 5: growth control rate is above 85%) | 5 (Level 5: growth control rate is above 85%) | 5 (Level 5: growth control rate is above 85%) | 5 (Level 5: growth control rate is above 85%) | 5 (Level 5: growth control rate is above 85%) | – | – | – | – | – | –
8 | CC(C#N)COC(=O)C(C)O/N=C/c1cc(-n2c(=O)cc(C(F)(F)F)n(C)c2=O)c(F)cc1Cl (stereo not drawn) [Compound 445] | 5 (Level 5: growth control rate is above 85%) | 5 (Level 5: growth control rate is above 85%) | 5 (Level 5: growth control rate is above 85%) | 5 (Level 5: growth control rate is above 85%) | 5 (Level 5: growth control rate is above 85%) | 5 (Level 5: growth control rate is above 85%) | – | – | – | – | – | –
9 | CC(O/N=C/c1cc(-n2c(=O)cc(C(F)(F)F)n(C)c2=O)c(F)cc1Cl)C(=O)OCCCC#N (stereo not drawn) [Compound 446] | 5 (Level 5: growth control rate is above 85%) | 5 (Level 5: growth control rate is above 85%) | 5 (Level 5: growth control rate is above 85%) | 5 (Level 5: growth control rate is above 85%) | 5 (Level 5: growth control rate is above 85%) | 5 (Level 5: growth control rate is above 85%) | – | – | – | – | – | –
10 | CC(O/N=C/c1cc(-n2c(=O)cc(C(F)(F)F)n(C)c2=O)c(F)cc1Cl)C(=O)OCC1(C#N)CC1 (stereo not drawn) [Compound 447] | 5 (Level 5: growth control rate is above 85%) | 5 (Level 5: growth control rate is above 85%) | 5 (Level 5: growth control rate is above 85%) | 5 (Level 5: growth control rate is above 85%) | 5 (Level 5: growth control rate is above 85%) | 5 (Level 5: growth control rate is above 85%) | – | – | – | – | – | –
11 | CC(O/N=C/c1cc(-n2c(=O)cc(C(F)(F)F)n(C)c2=O)c(F)cc1Cl)C(=O)OCCN(C)C (stereo not drawn) [Compound 448] | 5 (Level 5: growth control rate is above 85%) | 5 (Level 5: growth control rate is above 85%) | 5 (Level 5: growth control rate is above 85%) | 5 (Level 5: growth control rate is above 85%) | 5 (Level 5: growth control rate is above 85%) | 5 (Level 5: growth control rate is above 85%) | – | – | – | – | – | –
12 | CC(=NOC(=O)C(C)ON=Cc1cc(-n2c(=O)cc(C(F)(F)F)n(C)c2=O)c(F)cc1Cl)C(C)(C)C (stereo not drawn) [Compound 449] | 5 (Level 5: growth control rate is above 85%) | 5 (Level 5: growth control rate is above 85%) | 5 (Level 5: growth control rate is above 85%) | 5 (Level 5: growth control rate is above 85%) | 5 (Level 5: growth control rate is above 85%) | 5 (Level 5: growth control rate is above 85%) | – | – | – | – | – | –
13 | CC(=NOC(=O)C(C)ON=Cc1cc(-n2c(=O)cc(C(F)(F)F)n(C)c2=O)c(F)cc1Cl)C1CC1 (stereo not drawn) [Compound 450] | 5 (Level 5: growth control rate is above 85%) | 5 (Level 5: growth control rate is above 85%) | 5 (Level 5: growth control rate is above 85%) | 5 (Level 5: growth control rate is above 85%) | 5 (Level 5: growth control rate is above 85%) | 5 (Level 5: growth control rate is above 85%) | – | – | – | – | – | –
